Our source for the EC50, DC50 and Emax values is patent US20250325677A1, “STAT6 DEGRADERS” (Gilead Sciences, Inc., priority 2024, published 2025).

A word on the EC50: it is the concentration needed to bring the measured effect to its halfway point. The DC50 is the midpoint of the concentration-degradation curve. Usually Emax stands for the size of the effect at its maximum, as opposed to the concentration needed.

Structures are written as SMILES. Where two headings read alike, the source gives them in different places.

One assay concerns eotaxin-3 release. The experiment in a line: Human whole blood eotaxin-3 assay (IL-4 stimulated). The format is cell-based. Particulars: human whole blood. As to the method:
Human Whole Blood Eotaxin-3 Assay
This was a human whole blood assay using recombinant human Interleukin 4 to stimulate the blood and measuring the ability of the test compounds to inhibit eotaxin-3 release. Compounds or media were added to the wells and incubated together with human whole blood for 120 minutes at 37° C. Subsequently, recombinant IL-4 was added at a final concentration of 0.4 nM. The plates were incubated for 48 hours.
Test compounds which inhibited eotaxin-3 release upon stimulation with human IL-4 (E. coli) interfered with the signaling in human whole blood are expected to have activity in human beings. […] The EC50 value indicates at which concentration test compounds were active and in inhibiting the eotaxin-3 release. As eotaxin-3 release is down-stream of STAT6 signaling both STAT6 inhibitors and STAT6 degraders are active in this assay.
The data from the human whole blood eotaxin-3 assay is shown below for Examples 3e27, 3e50, 3e17, and 3e51 (where the effect in % is plotted against the test concentration in M on a log-scale).

In a further assay the target is STAT6 (Homo sapiens (Human), UniProt P42226). The assay is described as follows: STAT6 degrader assay (HiBiT, HeLa LgBiT clone 4.14). The format is cell-based. Particulars: HeLa LgBiT clone 4.14, 4-24 h; geometric mean; given for compounds with >80% Emax; read-out: STAT6 degradation DC50. In a few lines: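 HeLa LgBiT clone 4.14 cells with HiBiT knocked into endogenous STAT6 were treated with compound for 4-24 h at 37° C. Luminescence after Nano-GLO substrate (0.5 h) measured remaining STAT6; 50 μM terfenadine wells defined 100% degradation, and DC50 (nM) was derived.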
STAT6, sequence (P42226 whole entry): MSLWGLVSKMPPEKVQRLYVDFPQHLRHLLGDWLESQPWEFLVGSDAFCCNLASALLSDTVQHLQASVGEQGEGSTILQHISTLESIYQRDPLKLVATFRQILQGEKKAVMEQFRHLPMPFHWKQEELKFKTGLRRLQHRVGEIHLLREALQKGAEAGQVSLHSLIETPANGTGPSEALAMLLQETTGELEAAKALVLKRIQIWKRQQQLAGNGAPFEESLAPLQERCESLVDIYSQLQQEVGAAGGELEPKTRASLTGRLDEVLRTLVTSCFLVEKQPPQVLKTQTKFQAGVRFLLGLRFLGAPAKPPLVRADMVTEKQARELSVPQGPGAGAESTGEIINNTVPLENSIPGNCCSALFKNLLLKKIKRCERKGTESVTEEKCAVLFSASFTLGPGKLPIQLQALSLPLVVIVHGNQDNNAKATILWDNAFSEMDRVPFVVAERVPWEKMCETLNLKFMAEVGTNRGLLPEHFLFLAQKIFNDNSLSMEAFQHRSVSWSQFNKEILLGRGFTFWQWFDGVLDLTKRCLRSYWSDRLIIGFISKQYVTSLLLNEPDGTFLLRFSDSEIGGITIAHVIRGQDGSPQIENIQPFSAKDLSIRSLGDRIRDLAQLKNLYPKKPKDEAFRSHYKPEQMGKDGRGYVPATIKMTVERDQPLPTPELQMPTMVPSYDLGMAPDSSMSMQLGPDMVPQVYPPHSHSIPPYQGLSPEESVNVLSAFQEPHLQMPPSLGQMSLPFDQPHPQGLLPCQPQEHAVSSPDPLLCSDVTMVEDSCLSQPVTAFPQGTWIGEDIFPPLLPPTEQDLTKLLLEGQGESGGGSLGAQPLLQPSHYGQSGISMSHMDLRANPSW
(The HiBiT peptide binds its large partner to form an active luciferase.)

[1] abbreviates: IL-4 0.4 nM, 48 hours, geometric mean, given for compounds with >80% Emax, read-out: Eotaxin-3 EC50.

With `C[C@H]1CN(Cc2ccc3c(c2)n(C)c(=O)n3C2CCC(=O)NC2=O)CCN1CC1CCN(C(=O)c2ccc(C3CCN(Cc4cc5c(-c6ccc(N)nc6)ccnc5n4C)CC3)cc2)CC1` (stereo partly drawn) [Example 3e9, 3-(5-(((S)-4-((1-(4-(1-((4-(6-aminopyridin-3-yl)-1-methyl-1H-pyrrolo[2,3-b]pyridin-2-yl)methyl)piperidin-4-yl)benzoyl)piperidin-4-yl)methyl)-3-methylpiperazin-1-yl)methyl)-3-methyl-2-oxo-2,3-dihydro-1H-benzo[d]imidazol-1-yl)piperidine-2,6-dione], the EC50 with eotaxin-3 release (setting [1]) turned out to be 31 nM. The DC50 at STAT6 came to 0.75 nM.

On to `CNc1ccc(-c2ccnc3c2cc([C@H](C)N2CC=C(c4c(C)cc(C(=O)N5CCC(CN6CCN(Cc7cc8c(cc7F)N(C7CCC(=O)NC7=O)C(=O)C8(C)C)C[C@@H]6C)CC5)cc4F)CC2)n3C)cn1` (stereo partly drawn) [Example 3h33, 3-(6-fluoro-5-(((S)-4-((1-(3-fluoro-5-methyl-4-(1-((S)-1-(1-methyl-4-(6-(methylamino)pyridin-3-yl)-1H-pyrrolo[2,3-b]pyridin-2-yl)ethyl)-1,2,3,6-tetrahydropyridin-4-yl)benzoyl)piperidin-4-yl)methyl)-3-methylpiperazin-1-yl)methyl)-3,3-dimethyl-2-oxoindolin-1-yl)piperidine-2,6-dione], for which the EC50 in the assay with eotaxin-3 release (setting [1]) worked out at 40.4 nM. The DC50 on STAT6 turned out to be 36.7 nM.

On to `C[C@@H](c1cc2c(-c3ccc(N)nc3)ccnc2n1C)N1CCC(c2ccc(C(=O)N3CCC(CN4CCN(Cc5cc6c(cc5F)N(C5CCC(=O)NC5=O)C(=O)C65CC5)CC4)CC3)cc2)CC1` (stereo partly drawn) [Example 3h9, 3-(5′-((4-((1-(4-(1-((S)-1-(4-(6-aminopyridin-3-yl)-1-methyl-1H-pyrrolo[2,3-b]pyridin-2-yl)ethyl)piperidin-4-yl)benzoyl)piperidin-4-yl)methyl)piperazin-1-yl)methyl)-6′-fluoro-2′-oxospiro[cyclopropane-1,3′-indolin]-1′-yl)piperidine-2,6-dione], for which, in the assay on eotaxin-3 release (setting [1]), the EC50 worked out at 43.7 nM. The DC50 at STAT6 is 12.7 nM.

`C[C@H]1CN(Cc2ccc3c(c2)n(CC2CC2)c(=O)n3C2CCC(=O)NC2=O)CCN1CC1CCN(C(=O)c2ccc(C3CCN([C@@H](C)c4cc5c(-c6ccc(N)nc6)ccnc5n4C)CC3)cc2)CC1` (stereo partly drawn) [Example 3e54, 3-(5-(((S)-4-((1-(4-(1-((S)-1-(4-(6-aminopyridin-3-yl)-1-methyl-1H-pyrrolo[2,3-b]pyridin-2-yl)ethyl)piperidin-4-yl)benzoyl)piperidin-4-yl)methyl)-3-methylpiperazin-1-yl)methyl)-3-(cyclo-propylmethyl)-2-oxo-2,3-dihydro-1H-benzo[d]imidazol-1-yl)piperidine-2,6-dione]: in the assay with eotaxin-3 release (setting [1]), the EC50 came to 3.6 nM. The DC50 on STAT6 is 0.7 nM.

For the molecule `C[C@H]1CN(Cc2ccc3c(c2)n(C)c(=O)n3[C@@H]2CCC(=O)NC2=O)CCN1CC1CCN(C(=O)c2ccc(C3CCN(Cc4cc5c(-c6ccc(N)nc6)ccnc5n4C)CC3)cc2)CC1` (single isomer, unassigned) [Example 3e20], the EC50 with eotaxin-3 release (setting [1]) was 29.8 nM. For the same molecule, the DC50 on STAT6 turned out to be 1.1 nM.

Regarding `C[C@H]1CN(Cc2ccc3c(c2)n(C)c(=O)n3C2CCC(=O)NC2=O)CCN1CC1CCN(C(=O)c2ccc(C3CCN([C@@H](C)c4cc5c(-c6ccc(N)cn6)ccnc5n4C)CC3)cc2)CC1` (stereo partly drawn) [Example 3e56, 3-(5-(((S)-4-((1-(4-(1-((S)-1-(4-(5-aminopyridin-2-yl)-1-methyl-1H-pyrrolo[2,3-b]pyridin-2-yl)ethyl)piperidin-4-yl)benzoyl)piperidin-4-yl)methyl)-3-methylpiperazin-1-yl)methyl)-3-methyl-2-oxo-2,3-dihydro-1H-benzo[d]imidazol-1-yl)piperidine-2,6-dione], the EC50 with eotaxin-3 release (setting [1]) was found to be 2.6 nM. Also, the DC50 on STAT6 came out at 0.4 nM.

In the case of `CC[C@H]1CN(Cc2ccc3c(c2)n(C2CC2)c(=O)n3[C@H]2CCC(=O)NC2=O)CCN1CC1CCN(C(=O)c2ccc(C3CCN([C@@H](C)c4cc5c(-c6ccc(N)nc6)ccnc5n4C)CC3)cc2)CC1` (single isomer, unassigned) [Example 3e65], in the assay with eotaxin-3 release (setting [1]), the EC50 turned out to be 5.4 nM. Moreover, the DC50 at STAT6 was determined as 2.6 nM.

Turning to `C[C@@H](c1cc2c(-c3ccc(N)nc3)ccnc2n1C)N1CCC(c2ccc(C(=O)N3CCC(CN4CCN(Cc5ccc6c(c5)n(CC5CC5)c(=O)n6C5CCC(=O)NC5=O)CC4)CC3)cc2)CC1` (stereo partly drawn) [Example 3e53, 3-(5-((4-((1-(4-(1-((S)-1-(4-(6-aminopyridin-3-yl)-1-methyl-1H-pyrrolo[2,3-b]pyridin-2-yl)ethyl)piperidin-4-yl)benzoyl)piperidin-4-yl)methyl)piperazin-1-yl)methyl)-3-(cyclopropylmethyl)-2-oxo-2,3-dihydro-1H-benzo[d]imidazol-1-yl)piperidine-2,6-dione], the EC50 in the assay on eotaxin-3 release (setting [1]) was found to be 7.5 nM. Further, the DC50 at STAT6 came out at 1.9 nM.

As for `CNc1ccc(-c2ccnc3c2cc([C@H](C)N2CC=C(c4c(C)cc(C(=O)N(C)c5ccc(C6CCN(Cc7ccc8c(c7)C7(CC7)C(=O)N8C7CCC(=O)NC7=O)CC6)cc5)cc4F)CC2)n3C)cn1` (stereo partly drawn) [Example 3h11, N-(4-(1-((1′-(2,6-dioxopiperidin-3-yl)-2′-oxospiro[cyclopropane-1,3′-indolin]-5′-yl)methyl)piperidin-4-yl)phenyl)-3-fluoro-N,5-dimethyl-4-(1-((S)-1-(1-methyl-4-(6-(methylamino)pyridin-3-yl)-1H-pyrrolo[2,3-b]pyridin-2-yl)ethyl)-1,2,3,6-tetrahydropyridin-4-yl)benzamide], the EC50 in the assay on eotaxin-3 release (setting [1]) was determined as 2.8 nM. Further, on STAT6, the DC50 was 0.3 nM.

Take `CNc1ccc(-c2ccnc3c2cc([C@H](C)N2CC=C(c4c(C)cc(C(=O)N5CCC(CN6CCN(Cc7ccc8c(c7)C7(CCC7)C(=O)N8C7CCC(=O)NC7=O)C[C@@H]6C)CC5)cc4F)CC2)n3C)cn1` (stereo partly drawn) [Example 3h47, 3-(5′-(((S)-4-((1-(3-fluoro-5-methyl-4-(1-((S)-1-(1-methyl-4-(6-(methylamino)pyridin-3-yl)-1H-pyrrolo[2,3-b]pyridin-2-yl)ethyl)-1,2,3,6-tetrahydropyridin-4-yl)benzoyl)piperidin-4-yl)methyl)-3-methylpiperazin-1-yl)methyl)-2′-oxospiro[cyclobutane-1,3′-indolin]-1′-yl)piperidine-2,6-dione]: the EC50 in the assay with eotaxin-3 release (setting [1]) is 8.8 nM. The DC50 at STAT6 stood at 7 nM.

As for `C[C@@H](c1cc2c(-c3ccc(N)nc3)ccnc2n1C)N1CCC(c2ccc(C(=O)N3CCC(CN4CCN(Cc5ccc6c(c5)n(C)c(=O)n6C5CCC(=O)NC5=O)C[C@H]4C(F)(F)F)CC3)cc2)CC1` (stereo partly drawn) [Example 3e43, 3-(5-(((S)-4-((1-(4-(1-((S)-1-(4-(6-aminopyridin-3-yl)-1-methyl-1H-pyrrolo[2,3-b]pyridin-2-yl)ethyl)piperidin-4-yl)benzoyl)piperidin-4-yl)methyl)-3-(trifluoro-methyl)piperazin-1-yl)methyl)-3-methyl-2-oxo-2,3-dihydro-1H-benzo[d]imidazol-1-yl)piperidine-2,6-dione], the EC50 in the assay on eotaxin-3 release (setting [1]) was determined as 4.6 nM. Moreover, the DC50 on STAT6 was determined as 2.8 nM.

On to `C[C@H]1CN(c2ccc3c(c2)C2(CC2)C(=O)N3C2CCC(=O)NC2=O)CCN1CC1CCN(C(=O)c2ccc(C3CCN([C@@H](C)c4cc5c(-c6ccc(N)nc6)ccnc5n4C)CC3)cc2)CC1` (stereo partly drawn) [Example 3h46, 3-(5′-((S)-4-((1-(4-(1-((S)-1-(4-(6-aminopyridin-3-yl)-1-methyl-1H-pyrrolo[2,3-b]pyridin-2-yl)ethyl)piperidin-4-yl)benzoyl)piperidin-4-yl)methyl)-3-methylpiperazin-1-yl)-2′-oxospiro[cyclopropane-1,3′-indolin]-1′-yl)piperidine-2,6-dione], for which the EC50 in the assay with eotaxin-3 release (setting [1]) turned out to be 230 nM.

As to `CNc1ccc(-c2ccnc3c2cc([C@H](C)N2CC=C(c4c(C)cc(C(=O)N5CCC(CN6CCN(c7cc8c(cc7F)n(C7CCC(=O)NC7=O)c(=O)n8C)CC6)CC5)cc4F)CC2)n3C)cn1` (stereo partly drawn) [Example 3h45, 3-(6-fluoro-5-(4-((1-(3-fluoro-5-methyl-4-(1-((S)-1-(1-methyl-4-(6-(methylamino)pyridin-3-yl)-1H-pyrrolo[2,3-b]pyridin-2-yl)ethyl)-1,2,3,6-tetrahydropyridin-4-yl)benzoyl)piperidin-4-yl)methyl)piperazin-1-yl)-3-methyl-2-oxo-2,3-dihydro-1H-benzo[d]imidazol-1-yl)piperidine-2,6-dione], the EC50 in the assay with eotaxin-3 release (setting [1]) is 6.7 nM.

Regarding `CC[C@H]1CN(Cc2ccc3c(c2)n(C)c(=O)n3[C@@H]2CCC(=O)NC2=O)CCN1CC1CCN(C(=O)c2ccc(C3CCN([C@@H](C)c4cc5c(-c6ccc(N)nc6)ccnc5n4C)CC3)cc2)CC1` (single isomer, unassigned) [Example 3e57], in the assay with eotaxin-3 release (setting [1]), the EC50 worked out at 4.4 nM.

Turning to `CCCS(=O)(=O)N[C@H]1C[C@@H](N(C)c2ncnc3[nH]ccc23)C1` [abroticinib, abrocitinib, reference compound], in the assay with eotaxin-3 release (hIL-4 (E. coli) stimulation, read-out: EC50 of inhibition of eotaxin-3 release (reference compound)), the EC50 was approximately 450 nM. In the assay with eotaxin-3 release (hIL-4 (E. coli) stimulation, read-out: Emax of inhibition of eotaxin-3 release), the Emax is approximately 100%.
